In data set [1] the target is T1, (Ovis aries, UniProt P05979).
T1 construct: purchased Cayman Chemicals Inc., Ann Arbor, MI, USA 560131
T1 sequence (P05979 25-600): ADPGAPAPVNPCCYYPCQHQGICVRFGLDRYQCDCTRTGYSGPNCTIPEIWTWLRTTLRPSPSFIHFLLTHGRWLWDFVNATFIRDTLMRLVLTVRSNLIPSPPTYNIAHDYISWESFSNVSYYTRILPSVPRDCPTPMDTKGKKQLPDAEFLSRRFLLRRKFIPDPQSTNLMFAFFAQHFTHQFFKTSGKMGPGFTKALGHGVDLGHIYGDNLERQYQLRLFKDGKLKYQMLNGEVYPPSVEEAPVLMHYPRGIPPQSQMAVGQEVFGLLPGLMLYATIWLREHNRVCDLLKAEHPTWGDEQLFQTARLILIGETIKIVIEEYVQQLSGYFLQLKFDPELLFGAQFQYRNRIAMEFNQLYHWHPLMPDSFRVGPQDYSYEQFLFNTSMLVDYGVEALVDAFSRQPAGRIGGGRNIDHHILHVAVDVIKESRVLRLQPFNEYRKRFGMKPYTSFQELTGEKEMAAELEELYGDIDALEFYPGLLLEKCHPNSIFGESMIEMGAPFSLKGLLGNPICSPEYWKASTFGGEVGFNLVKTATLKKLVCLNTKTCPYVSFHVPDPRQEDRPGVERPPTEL
Put plainly: In vitro human COX-1 enzymatic inhibitory activity (Cayman COX inhibitor screening assay kit). Type of data set: biochemical. Conditions: mean ± SEM of triplicate determinations. The procedure: (§1) Inhibitory activities were defined as a test compound concentration achieving 50% human COX-1 or human COX-2 inhibition. The selectivity of compounds was referred to as a compound’s selectivity index values calculated as IC50 (COX-1)/IC50 (COX-2).
(§2) In vitro human COX-1 and human COX-2 enzymatic inhibitory activity of the tested compounds as well as the reference drugs was carried out according to the previously mentioned procedures; for details, see Page S15, Supplementary File.
(§3) 4.2. Biological screening
(§4) 4.2.1. In vitro human COX-1 and human COX-2 enzymatic inhibitory activities In vitro human COX-1 and human COX-2 enzymatic inhibitory activity of the tested compounds as well as the reference drugs was carried out according to the previously mentioned procedures [1][2]depending on Cayman colorimetric COX (ovine) inhibitor screening assay kit (Catalog No.
(§5) All reagents, test solutions and experimental procedures were performed in correspondence to both the manufacturer’s instructions and previously reported methods. Briefly, […] of different concentrations of tested compound solutions were added to a series of supplied reaction buffer solutions (960 µL, 0.1 M Tris-HCl, pH 8.0 containing 5 mM EDTA and 2 mM phenol) with either COX-1 or COX-2 (10 µL) enzyme in the presence of heme (10 µL). 10 µL of Arachidonic Acid (100 µM) solution were added to the mixtures of the enzyme and tested compounds, After incubating for 5 min at 25 °C followed by stopping COX reaction by adding of 50 µL of 1 M HCl. Moreover, after adding 100 µL of saturated stannous chloride solution, the absorbance was measured spectrophotometrically using plate reader. measuring the […]
(§6) percentage of human COX-1 or human COX-2 enzymatic inhibition of five different concentrations of each compound and then concentration-inhibition response curve were plotted to obtain IC50 values(three determinations). […]

The target of another data set is T2, human COX-2 (Homo sapiens, UniProt P35354).
T2 construct: purchased Cayman Chemicals Inc., Ann Arbor, MI, USA 560131
T2 sequence (P35354 18-604): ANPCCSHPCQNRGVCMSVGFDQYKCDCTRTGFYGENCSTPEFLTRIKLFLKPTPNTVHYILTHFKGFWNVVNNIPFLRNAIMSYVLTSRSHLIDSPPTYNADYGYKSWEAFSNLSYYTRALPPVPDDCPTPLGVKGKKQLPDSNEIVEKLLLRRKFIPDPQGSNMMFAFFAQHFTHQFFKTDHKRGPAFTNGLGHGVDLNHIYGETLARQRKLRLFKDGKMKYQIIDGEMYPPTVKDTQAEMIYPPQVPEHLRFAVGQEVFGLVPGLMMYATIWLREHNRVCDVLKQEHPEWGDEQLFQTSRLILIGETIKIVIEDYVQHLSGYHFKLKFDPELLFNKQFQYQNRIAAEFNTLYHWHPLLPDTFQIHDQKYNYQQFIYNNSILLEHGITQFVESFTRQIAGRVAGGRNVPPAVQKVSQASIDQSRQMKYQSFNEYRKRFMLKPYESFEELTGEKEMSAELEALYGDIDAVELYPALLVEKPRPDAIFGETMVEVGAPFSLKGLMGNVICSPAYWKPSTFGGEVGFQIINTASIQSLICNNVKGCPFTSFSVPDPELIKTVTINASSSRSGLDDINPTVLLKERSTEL
Put plainly: In vitro human COX-2 enzymatic inhibitory activity (Cayman COX inhibitor screening assay kit). Type of data set: biochemical. As to conditions: for SI COX-1/COX-2: COX-2 selectivity index: COX-1 IC50/COX-2 IC50; for IC50: mean ± SEM of triplicate determinations. Here is the method:
as §1, §2, §3, §4, §5, §6

The molecule `CC(=NNC(=O)Cc1ccccc1Nc1c(Cl)cccc1Cl)c1nnn(-c2ccc(S(N)(=O)=O)cc2)c1C` [Compound 6d, 4-(4-(1-(2-(2-(2-((2,6-Dichlorophenyl)amino)phenyl)acetyl)hydrazineylidene)ethyl)-5-methyl-1H-1,2,3-triazol-1-yl)benzenesulfonamide] displayed a melting point of 241 to 243 °C. Further, the IC50 in data set [1] stood at 8.4 ± 0.0577 µM. For the same molecule, at human COX-2, the “SI COX-1/COX-2” value is 105 and it took 0.08 ± 0.0009 µM to reach half-maximal inhibition (IC50).
Take `CC(=O)c1nnn(-c2ccc(S(=O)(=O)Nc3ncccn3)cc2)c1C` [Compound 4c, 4-(4-Acetyl-5-methyl-1H-1,2,3-triazol-1-yl)-N-(pyrimidin-2-yl)benzenesulfonamide]: the melting point fell in the range of 233 to 235 °C. Moreover, the IC50 in data set [1] was found to be 8.23 ± 0.0667 µM. Moreover, at human COX-2, the “SI COX-1/COX-2” value is given as 91.44 and the midpoint of inhibition, the IC50, lay at 0.09 ± 0.0003 µM.
The like results for `CC(=NNC(=O)C(C)c1ccc(CC(C)C)cc1)c1nnn(-c2ccc(S(N)(=O)=O)cc2)c1C` (stereo not drawn) [Compound 6a, 4-(4-(1-(2-(2-(4-Isobutylphenyl)propanoyl)hydrazineylidene)ethyl)-5-methyl-1H-1,2,3-triazol-1-yl)benzenesulfonamide] were, in that order, 205 to 207 °C, 9.13 ± 0.0882 µM, 114.13 and 0.08 ± 0.0006 µM.
Take `CC(=NNC(=O)c1ccccc1O)c1nnn(-c2ccc(S(=O)(=O)Nc3ncccn3)cc2)c1C` [Compound 6i, 4-(4-(1-(2-(2-Hydroxybenzoyl)hydrazineylidene)ethyl)-5-methyl-1H-1,2,3-triazol-1-yl)-N-(pyrimidin-2-yl)benzenesulfonamide]: the melting point lay within 248 to 250 °C. The molecule further showed an IC50 in data set [1] of 10.23 ± 0.0882 µM. At human COX-2, the “SI COX-1/COX-2” value is 146.14 and half-maximal inhibition (IC50) required 0.07 ± 0.0006 µM.
`CC(=NNC(=O)Cc1ccccc1Nc1c(Cl)cccc1Cl)c1nnn(-c2ccc(S(=O)(=O)Nc3ncccn3)cc2)c1C` [Compound 6f, 4-(4-(1-(2-(2-(2-((2,6-Dichlorophenyl)amino)phenyl)acetyl)hydrazineylidene)ethyl)-5-methyl-1H-1,2,3-triazol-1-yl)-N-(pyrimidin-2-yl)benzenesulfonamide] showed a melting point of 276 to 278 °C. The IC50 in data set [1] came to 12.67 ± 0.0333 µM. On human COX-2, the “SI COX-1/COX-2” value turned out to be 158.38 and the half-inhibitory concentration (IC50) was found to be 0.08 ± 0.0007 µM.
The like results for `CC(=NNC(=O)c1ccccc1O)c1nnn(-c2ccc(S(=O)(=O)Nc3nccs3)cc2)c1C` [Compound 6h, 4-(4-(1-(2-(2-Hydroxybenzoyl)hydrazineylidene)ethyl)-5-methyl-1H-1,2,3-triazol-1-yl)-N-(thiazol-2-yl)benzenesulfonamide] were, in that order, 227 to 229 °C, 8.27 ± 0.0667 µM, 91.89 and 0.09 ± 0.0006 µM.
On the same counts, the results for `CC(=O)c1nnn(-c2ccc(S(=O)(=O)Nc3nccc(C)n3)cc2)c1C` [Compound 4d, 4-(4-Acetyl-5-methyl-1H-1,2,3-triazol-1-yl)-N-(4-methylpyrimidin-2-yl)benzenesulfonamide] are 241 to 243 °C, 9.27 ± 0.0667 µM, 84.27 and 0.11 ± 0.0057 µM.
In turn, `CC(=NNC(=O)C(C)c1ccc(CC(C)C)cc1)c1nnn(-c2ccc(S(=O)(=O)Nc3ncccn3)cc2)c1C` (stereo not drawn) [Compound 6c, 4-(4-(1-(2-(2-(4-Isobutylphenyl)propanoyl)hydrazineylidene)ethyl)-5-methyl-1H-1,2,3-triazol-1-yl)-N-(pyrimidin-2-yl)benzenesulfonamide] showed a melting point of 257 to 259 °C. In data set [1], this molecule registered an IC50 of 11.17 ± 0.0333 µM. Also, on human COX-2, the “SI COX-1/COX-2” value amounted to 159.57 and inhibition was half-maximal at 0.07 ± 0.0006 µM (IC50).
The like results for `CC(=NNC(=O)c1ccccc1O)c1nnn(-c2ccc(S(N)(=O)=O)cc2)c1C` [Compound 6g, 4-(4-(1-(2-(2-Hydroxybenzoyl)hydrazineylidene)ethyl)-5-methyl-1H-1,2,3-triazol-1-yl)benzenesulfonamide] were, in that order, 220 to 222 °C, 6.67 ± 0.0667 µM, 83.38 and 0.08 ± 0.0006 µM.

Broadly, the IC50 is the point on the concentration scale where inhibition reaches its midpoint. Usually melting point stands for the temperature, or range, at which the solid turns liquid.

These data come from article PMC9609428, “Rational Design and Synthesis of New Selective COX-2 Inhibitors with In Vivo PGE2-Lowering Activity by Tethering Benzenesulfonamide and 1,2,3-Triazole Pharmacophores to Some NSAIDs” (Pharmaceuticals, 2022).
